According to PubChem BioAssay AID248 (DTP/NCI, 2004):
Toxic doses and inconclusive results are not listed. Cut-off read from the data, not from the text of the source: active = T/C of 150% or more; inactive = T/C below 125%.

Tested on: L1210 leukemia ip in BDF1 mice, survival T/C
Assay: NCI In Vivo Anticancer Drug Screen. Data for tumor model L1210 Leukemia (intraperitoneal) in B6D2F1 (BDF1) mice
Details: higher = longer survival
In short: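 Value reflects the ratio of survival in compound-treated mice to survival in vehicle-treated controls, with both groups carrying the same transplanted tumor.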

[1] = endpoint: mean survival time, dose: 12.5 mg/kg/injection, schedule: Q04DX003 (ip), vehicle: saline with Tween-80
[2] = endpoint: mean survival time, dose: 100.0 mg/kg/injection, schedule: Q01DX001 (ip), vehicle: saline
[3] = endpoint: mean survival time, dose: 200.0 mg/kg/injection, schedule: Q01DX001 (ip), vehicle: saline
[4] = endpoint: mean survival time, dose: 400.0 mg/kg/injection, schedule: Q01DX001 (ip), vehicle: saline
[5] = endpoint: mean survival time, dose: 100.0 mg/kg/injection, schedule: Q04DX003 (ip), vehicle: saline with Tween-80
[6] = endpoint: mean survival time, dose: 200.0 mg/kg/injection, schedule: Q04DX003 (ip), vehicle: saline with Tween-80
[7] = endpoint: mean survival time, dose: 400.0 mg/kg/injection, schedule: Q01DX009 (ip), vehicle: saline with Tween-80
[8] = endpoint: mean survival time, dose: 400.0 mg/kg/injection, schedule: Q04DX003 (ip), vehicle: saline with Tween-80
[9] = endpoint: mean survival time, dose: 50.0 mg/kg/injection, schedule: Q04DX002 (ip), vehicle: Klucel (hydroxypropylcellulose) (HPC)
[10] = endpoint: mean survival time, dose: 100.0 mg/kg/injection, schedule: Q04DX002 (ip), vehicle: Klucel (hydroxypropylcellulose) (HPC)
[11] = endpoint: mean survival time, dose: 100.0 mg/kg/injection, schedule: Q04DX003 (ip), vehicle: Klucel (hydroxypropylcellulose) (HPC)
[12] = endpoint: mean survival time, dose: 200.0 mg/kg/injection, schedule: Q04DX003 (ip), vehicle: Klucel (hydroxypropylcellulose) (HPC)
[13] = endpoint: mean survival time, dose: 400.0 mg/kg/injection, schedule: Q04DX003 (ip), vehicle: Klucel (hydroxypropylcellulose) (HPC)
[14] = endpoint: mean survival time, dose: 50.0 mg/kg/injection, schedule: Q01DX001 (ip), vehicle: carboxymethylcellulose (CMC)
[15] = endpoint: mean survival time, dose: 100.0 mg/kg/injection, schedule: Q01DX001 (ip), vehicle: carboxymethylcellulose (CMC)
[16] = endpoint: mean survival time, dose: 100.0 mg/kg/injection, schedule: Q01DX009 (ip), vehicle: Klucel (hydroxypropylcellulose) (HPC)
[17] = endpoint: mean survival time, dose: 200.0 mg/kg/injection, schedule: Q01DX001 (ip), vehicle: carboxymethylcellulose (CMC)
[18] = endpoint: mean survival time, dose: 200.0 mg/kg/injection, schedule: Q01DX009 (ip), vehicle: Klucel (hydroxypropylcellulose) (HPC)
[19] = endpoint: mean survival time, dose: 400.0 mg/kg/injection, schedule: Q01DX001 (ip), vehicle: carboxymethylcellulose (CMC)
[20] = endpoint: mean survival time, dose: 100.0 mg/kg/injection, schedule: Q01DX001 (ip), vehicle: saline with Tween-80
[21] = endpoint: mean survival time, dose: 200.0 mg/kg/injection, schedule: Q01DX001 (ip), vehicle: saline with Tween-80
[22] = endpoint: mean survival time, dose: 400.0 mg/kg/injection, schedule: Q01DX001 (ip), vehicle: saline with Tween-80

Measured: T/C

COC(OC)C1OC(c2ccccc2)OC2COC(c3ccccc3)OC21 (configuration not stated)
inactive: endpoint: mean survival time, dose: 12.5 mg/kg/injection, schedule: Q01DX009 (ip), vehicle: saline with Tween-80 92 % of control | [1] 93 % of control | endpoint: mean survival time, dose: 25.0 mg/kg/injection, schedule: Q01DX009 (ip), vehicle: saline with Tween-80 92 % of control | endpoint: mean survival time, dose: 25.0 mg/kg/injection, schedule: Q04DX003 (ip), vehicle: saline with Tween-80 92 % of control | endpoint: mean survival time, dose: 50.0 mg/kg/injection, schedule: Q01DX009 (ip), vehicle: saline with Tween-80 92 % of control | endpoint: mean survival time, dose: 50.0 mg/kg/injection, schedule: Q04DX003 (ip), vehicle: saline with Tween-80 92 % of control

O=[N+]([O-])C1C(O)CCCC1O (configuration not stated)
inactive: [2] 102 % of control | [3] 102 % of control | [4] 105 % of control

O=C(Nc1cccc(C(F)(F)F)c1)c1ccc(C(=O)Nc2cccc(C(F)(F)F)c2)cc1
inactive: [5] 95 % of control | [6] 90 % of control | [7] 96 % of control | [8] 95 % of control

CC(=O)OCC1OC(n2cnc3c(Cl)nc(N)nc32)C(OC(C)=O)C1OC(C)=O (configuration not stated)
inactive: endpoint: mean survival time, dose: 100.0 mg/kg/injection, schedule: Q01DX005 (ip), vehicle: saline 103 % of control | endpoint: mean survival time, dose: 200.0 mg/kg/injection, schedule: Q01DX005 (ip), vehicle: saline 101 % of control

O=[N+]([O-])/C=C\c1cc(Cl)c(/C=C/[N+](=O)[O-])c(Cl)c1Cl
inactive: endpoint: mean survival time, dose: 2.5 mg/kg/injection, schedule: Q01DX009 (ip), vehicle: saline 88 % of control | endpoint: mean survival time, dose: 10.0 mg/kg/injection, schedule: Q01DX001 (ip), vehicle: acetone 89 % of control | endpoint: mean survival time, dose: 10.0 mg/kg/injection, schedule: Q04DX003 (ip), vehicle: acetone 91 % of control | endpoint: mean survival time, dose: 20.0 mg/kg/injection, schedule: Q01DX001 (ip), vehicle: acetone 94 % of control | endpoint: mean survival time, dose: 20.0 mg/kg/injection, schedule: Q04DX003 (ip), vehicle: acetone 101 % of control

Cc1ccc(OCC(N)=O)cc1
inactive: [9] 100 % of control | [10] 113 % of control | endpoint: mean survival time, dose: 200.0 mg/kg/injection, schedule: Q04DX002 (ip), vehicle: Klucel (hydroxypropylcellulose) (HPC) 103 % of control

ClC1(Cl)C2CCC3(CC21)OCCO3 (configuration not stated)
inactive: endpoint: mean survival time, dose: 50.0 mg/kg/injection, schedule: Q04DX003 (ip), vehicle: Klucel (hydroxypropylcellulose) (HPC) 115 % of control | endpoint: mean survival time, dose: 100.0 mg/kg/injection, schedule: Q01DX001 (ip), vehicle: Klucel (hydroxypropylcellulose) (HPC) 114 % of control | [11] 103 % of control | endpoint: mean survival time, dose: 200.0 mg/kg/injection, schedule: Q01DX001 (ip), vehicle: Klucel (hydroxypropylcellulose) (HPC) 106 % of control | [12] 93 % of control | endpoint: mean survival time, dose: 400.0 mg/kg/injection, schedule: Q01DX001 (ip), vehicle: Klucel (hydroxypropylcellulose) (HPC) 101 % of control | [13] 106 % of control

COC(=O)NNC(=O)OC
inactive: [14] 89 % of control | [15] 94 % of control | [16] 97 % of control | [17] 97 % of control | [18] 100 % of control | [19] 103 % of control | endpoint: mean survival time, dose: 400.0 mg/kg/injection, schedule: Q01DX009 (ip), vehicle: Klucel (hydroxypropylcellulose) (HPC) 103 % of control

Cc1cc(C(=O)C(=O)O)c(CN2C(=O)c3ccccc3C2=O)c(=O)n1C
inactive: [20] 97 % of control | [21] 107 % of control | [22] 97 % of control

O=C1C(O)C23CC=CCC12CC=CC3 (configuration not stated)
inactive: [2] 116 % of control | [3] 105 % of control | [4] 100 % of control

CCOC(=O)Nc1ccc([N+](=O)[O-])cc1[N+](=O)[O-]
inactive: [20] 101 % of control | [5] 100 % of control | [21] 98 % of control | [6] 93 % of control | [22] 95 % of control | [8] 98 % of control

CCOC(=O)c1[nH]c(C)c(C(=O)OCC)c1C
inactive: endpoint: mean survival time, dose: 50.0 mg/kg/injection, schedule: Q01DX009 (ip), vehicle: Klucel (hydroxypropylcellulose) (HPC) 95 % of control | [16] 95 % of control | endpoint: mean survival time, dose: 100.0 mg/kg/injection, schedule: Q04DX002 (ip), vehicle: saline with Tween-80 99 % of control | [18] 103 % of control | endpoint: mean survival time, dose: 200.0 mg/kg/injection, schedule: Q04DX002 (ip), vehicle: saline with Tween-80 102 % of control | endpoint: mean survival time, dose: 400.0 mg/kg/injection, schedule: Q04DX002 (ip), vehicle: saline with Tween-80 102 % of control | endpoint: median survival time, dose: 10.0 mg/kg/injection, schedule: Q04DX002 (ip), vehicle: Klucel (hydroxypropylcellulose) (HPC) 100 % of control | endpoint: median survival time, dose: 200.0 mg/kg/injection, schedule: Q04DX002 (ip), vehicle: Klucel (hydroxypropylcellulose) (HPC) 89 % of control | endpoint: median survival time, dose: 400.0 mg/kg/injection, schedule: Q04DX002 (ip), vehicle: Klucel (hydroxypropylcellulose) (HPC) 107 % of control

CCCOC(=O)C1OC12CCCCC2 (configuration not stated)
inactive: endpoint: mean survival time, dose: 100.0 mg/kg/injection, schedule: Q01DX009 (ip), vehicle: saline with Tween-80 103 % of control | endpoint: mean survival time, dose: 200.0 mg/kg/injection, schedule: Q01DX009 (ip), vehicle: saline with Tween-80 100 % of control | [7] 103 % of control

CC1(C)C2=CCCC2CC/C1=N/NC(N)=O (configuration not stated)
inactive: endpoint: mean survival time, dose: 25.0 mg/kg/injection, schedule: Q04DX002 (ip), vehicle: Klucel (hydroxypropylcellulose) (HPC) 107 % of control | [9] 93 % of control | [10] 90 % of control

CCn1c2ccccc2c2cc(N=Cc3ccc(N(CCCl)CCCl)cc3C)ccc21
inactive: [14] 103 % of control | [15] 103 % of control | [17] 117 % of control | [19] 100 % of control

O=S(=O)(OCC1CO1)c1ccc(F)cc1 (configuration not stated)
inactive: endpoint: mean survival time, dose: 100.0 mg/kg/injection, schedule: Q01DX007 (ip), vehicle: Klucel (hydroxypropylcellulose) (HPC) 103 % of control | [11] 95 % of control | endpoint: mean survival time, dose: 200.0 mg/kg/injection, schedule: Q01DX007 (ip), vehicle: Klucel (hydroxypropylcellulose) (HPC) 114 % of control | [12] 104 % of control | endpoint: mean survival time, dose: 400.0 mg/kg/injection, schedule: Q01DX007 (ip), vehicle: Klucel (hydroxypropylcellulose) (HPC) 103 % of control | [13] 98 % of control

CCOc1ccc(/C=C/C(=O)c2ccc(C)cc2)cc1OCC
inactive: endpoint: mean survival time, dose: 75.0 mg/kg/injection, schedule: Q04DX003 (ip), vehicle: saline 100 % of control | endpoint: mean survival time, dose: 150.0 mg/kg/injection, schedule: Q04DX003 (ip), vehicle: saline 102 % of control | endpoint: mean survival time, dose: 300.0 mg/kg/injection, schedule: Q04DX003 (ip), vehicle: saline 105 % of control

CCOC(=O)CCCCCCCCC(=O)Nc1ccc([N+](=O)[O-])cc1O
inactive: [11] 103 % of control | [12] 100 % of control | [13] 101 % of control

C[C@@H]1CN1C1=CC(=O)C(N2C[C@H]2C)=CC1=O
inactive: endpoint: mean survival time, dose: 6.25 mg/kg/injection, schedule: Q04DX003 (ip), vehicle: saline with Tween-80 117 % of control | [1] 117 % of control
